Measurements published in paper PMC11124822, “Discovery and Anticancer Screening of Novel Oxindole-Based Derivative Bearing Pyridyl Group as Potent and Selective Dual FLT3/CDK2 Kinase Inhibitor” (Pharmaceuticals, 2024).

Key:
SF-295 = test: NCI-60 antiproliferative screen (SRB); format: cell-based, human; conditions: Homo sapiens; 10 µM single dose, 48 h; SF-295 (CNS); read-out: Growth inhibition (%)
HCC-2998 = test: NCI-60 antiproliferative screen (SRB); format: cell-based, human; conditions: Homo sapiens; 10 µM single dose, 48 h; HCC-2998 (Colon); read-out: Growth inhibition (%)
TK-10 = test: NCI-60 antiproliferative screen (SRB); format: cell-based, human; conditions: Homo sapiens; 10 µM single dose, 48 h; TK-10 (Renal); read-out: Growth inhibition (%)
U251 = test: NCI-60 antiproliferative screen (SRB); format: cell-based, human; conditions: Homo sapiens, U-251; 10 µM single dose, 48 h; U251 (CNS); read-out: Growth inhibition (%)
SNB-75 = test: NCI-60 antiproliferative screen (SRB); conditions: Homo sapiens, SNB-75, 48 h, read-out: Growth inhibition (%)
IGROV1 = test: NCI-60 antiproliferative screen (SRB); format: cell-based, human; conditions: Homo sapiens, IGROV-1; 10 µM single dose, 48 h; IGROV1 (Ovarian); read-out: Growth inhibition (%)
SN12C = test: NCI-60 antiproliferative screen (SRB); format: cell-based, human; conditions: Homo sapiens; 10 µM single dose, 48 h; SN12C (Renal); read-out: Growth inhibition (%)
[1] = test system: NCI-60 human cancer cell lines; test: NCI-60 screen, full panel summary; format: cell-based; conditions: 10 µM single dose; for Mean Growth Percent: all NCI-60 cell lines
Experimental: In a comprehensive test, compounds were assayed at a single dose concentration (10^−5 M) in the full panel of NCI-60 cancer cell lines.

K-562 = test: NCI-60 antiproliferative screen (SRB); format: cell-based, human; conditions: Homo sapiens, K562; 10 µM single dose, 48 h; K-562 (Leukemia); read-out: Growth inhibition (%)
HCT-116 = test: NCI-60 antiproliferative screen (SRB); format: cell-based, human; conditions: Homo sapiens; 10 µM single dose, 48 h; HCT-116 (Colon); read-out: Growth inhibition (%)
HS 578T = test: NCI-60 antiproliferative screen (SRB); format: cell-based, human; conditions: Homo sapiens; 10 µM single dose, 48 h; HS 578T (Breast); read-out: Growth inhibition (%)
MDA-MB-435 = test: NCI-60 antiproliferative screen (SRB); format: cell-based, human; conditions: Homo sapiens; 10 µM single dose, 48 h; MDA-MB-435 (Melanoma); read-out: Growth inhibition (%)
HT29 = test: NCI-60 antiproliferative screen (SRB); format: cell-based, human; conditions: Homo sapiens, HT-29; 10 µM single dose, 48 h; HT29 (Colon); read-out: Growth inhibition (%)
SK-MEL-5 = test: NCI-60 antiproliferative screen (SRB); format: cell-based, human; conditions: Homo sapiens; 10 µM single dose, 48 h; SK-MEL-5 (Melanoma); read-out: Growth inhibition (%)
RXF 393 = test: NCI-60 antiproliferative screen (SRB); format: cell-based, human; conditions: Homo sapiens; 10 µM single dose, 48 h; RXF 393 (Renal); read-out: Growth inhibition (%)
786-0 = test: NCI-60 antiproliferative screen (SRB); format: cell-based, human; conditions: Homo sapiens; 10 µM single dose, 48 h; 786-0 (Renal); read-out: Growth inhibition (%)
T-47D = test: NCI-60 antiproliferative screen (SRB); format: cell-based, human; conditions: Homo sapiens, T47D; 10 µM single dose, 48 h; T-47D (Breast); read-out: Growth inhibition (%)
MDA-MB-231 = test: NCI-60 antiproliferative screen (SRB); format: cell-based, human; conditions: Homo sapiens; 10 µM single dose, 48 h; MDA-MB-231 (Breast); read-out: Growth inhibition (%)
SF-539 = test: NCI-60 antiproliferative screen (SRB); format: cell-based, human; conditions: Homo sapiens; 10 µM single dose, 48 h; SF-539 (CNS); read-out: Growth inhibition (%)
NCI-H322M = test: NCI-60 antiproliferative screen (SRB); format: cell-based, human; conditions: Homo sapiens; 10 µM single dose, 48 h; NCI-H322M (NSCLC); read-out: Growth inhibition (%)
SK-MEL-2 = test: NCI-60 antiproliferative screen (SRB); format: cell-based, human; conditions: Homo sapiens; 10 µM single dose, 48 h; SK-MEL-2 (Melanoma); read-out: Growth inhibition (%)
NCI-H23 = test: NCI-60 antiproliferative screen (SRB); format: cell-based, human; conditions: Homo sapiens; 10 µM single dose, 48 h; NCI-H23 (NSCLC); read-out: Growth inhibition (%)
M14 = test: NCI-60 antiproliferative screen (SRB); format: cell-based, human; conditions: Homo sapiens; 10 µM single dose, 48 h; M14 (Melanoma); read-out: Growth inhibition (%)
NCI/ADR-RES = test: NCI-60 antiproliferative screen (SRB); format: cell-based, human; conditions: Homo sapiens; 10 µM single dose, 48 h; NCI/ADR-RES (Ovarian); read-out: Growth inhibition (%)
HOP-62 = test: NCI-60 antiproliferative screen (SRB); format: cell-based, human; conditions: Homo sapiens; 10 µM single dose, 48 h; HOP-62 (NSCLC); read-out: Growth inhibition (%)
COLO 205 = test: NCI-60 antiproliferative screen (SRB); format: cell-based, human; conditions: Homo sapiens; 10 µM single dose, 48 h; COLO 205 (Colon); read-out: Growth inhibition (%)
HOP-92 = test: NCI-60 antiproliferative screen (SRB); format: cell-based, human; conditions: Homo sapiens; 10 µM single dose, 48 h; HOP-92 (NSCLC); read-out: Growth inhibition (%)
SW-620 = test: NCI-60 antiproliferative screen (SRB); format: cell-based, human; conditions: Homo sapiens; 10 µM single dose, 48 h; SW-620 (Colon); read-out: Growth inhibition (%)
PC-3 = test: NCI-60 antiproliferative screen (SRB); format: cell-based, human; conditions: Homo sapiens; 10 µM single dose, 48 h; PC-3 (Prostate); read-out: Growth inhibition (%)

Row | Compound | inhibition at 10 µM (SF-295) [%] | inhibition at 10 µM (HCC-2998) [%] | inhibition at 10 µM (TK-10) [%] | inhibition at 10 µM (U251) [%] | inhibition at 10 µM (SNB-75) [%] | inhibition at 10 µM (IGROV1) [%] | inhibition at 10 µM (SN12C) [%] | Positive Cytostatic Effect (cell lines with percent growth from 0 to 50 / total number of cell lines) [1] | Positive Cytotoxic Effect (cell lines with percent growth of <0 / total number of cell lines) [1] | Sensitive/Total Cell Lines [1] | The Most Sensitive Cell Line [1] | number of cell lines with cytostatic effects [1] | Mean Growth Percent [1] | inhibition at 10 µM (K-562) [%] | inhibition at 10 µM (HCT-116) [%] | inhibition at 10 µM (HS 578T) [%] | inhibition at 10 µM (MDA-MB-435) [%] | inhibition at 10 µM (HT29) [%] | inhibition at 10 µM (SK-MEL-5) [%] | inhibition at 10 µM (RXF 393) [%] | further results
1 | O=C1Nc2ccc(Cl)cc2C1=Cc1ccc(OCc2ccncc2)cc1 (mixture of isomers) [Compound 5o, (E/Z)-5-Chloro-3-[4-(pyridin-4-ylmethoxy)benzylidene] indolin-2-one] | 44.2 | 12.4 | 17.7 | 66.9 | 21.2 | 84.7 | 34.4 | 28/59 | 0/59 | 28/59 | MCF7 | 28 | 47.19 | 72.5 | 60.5 | 27 | 58.7 | 39.7 | 62.6 | 73.8 | inhibition at 10 µM (786-0): 32.4%; inhibition at 10 µM (T-47D): 61%; inhibition at 10 µM (MDA-MB-231): 24.9%; inhibition at 10 µM (SF-539): 44%; inhibition at 10 µM (NCI-H322M): 40.6%; inhibition at 10 µM (SK-MEL-2): 4.23%; inhibition at 10 µM (NCI-H23): 55.3%; inhibition at 10 µM (M14): 33%; inhibition at 10 µM (NCI/ADR-RES): 67.6%; inhibition at 10 µM (HOP-62): 19.7%; inhibition at 10 µM (COLO 205): 19.2%; inhibition at 10 µM (HOP-92): 16.3%; inhibition at 10 µM (SW-620): 48.3%; inhibition at 10 µM (PC-3): 52.4%; melting point: 238 to 240 °C
2 | O=C1Nc2cc(Cl)ccc2C1=Cc1ccc(OCc2ccncc2)cc1 (mixture of isomers) [Compound 5p, (E/Z)-6-Chloro-3-[4-(pyridin-4-ylmethoxy)benzylidene]indolin-2-one] | 32.2 | 20.1 | -0.51 | 64.4 | 14.9 | 67.9 | 34.6 | 21/59 | 0/59 | 21/59 | SF-539 | 21 | 41.27 | 59.1 | 61.5 | 35 | 29.2 | 37.8 | 65 | 67.4 | inhibition at 10 µM (786-0): 23.9%; inhibition at 10 µM (T-47D): 67.1%; inhibition at 10 µM (MDA-MB-231): 32.7%; inhibition at 10 µM (SF-539): 94.2%; inhibition at 10 µM (NCI-H322M): 22.5%; inhibition at 10 µM (SK-MEL-2): 27.6%; inhibition at 10 µM (NCI-H23): 57.2%; inhibition at 10 µM (M14): 16.9%; inhibition at 10 µM (NCI/ADR-RES): 59.3%; inhibition at 10 µM (HOP-62): 21.4%; inhibition at 10 µM (COLO 205): 39.7%; inhibition at 10 µM (HOP-92): 49.6%; inhibition at 10 µM (SW-620): 49.5%; inhibition at 10 µM (PC-3): 45%; melting point: 233 to 235 °C
